The text below walks through data of patent US20120076776A1, “METHOD FOR TREATING INFLAMATION BY LYMPHOCYTE DEPLETION OR SEQUESTERING” (priority 2010, published 2012).

The test system of assay [1] is experimental hemorrhagic shock induced by porcine liver injury. Put plainly: Liver injury hemorrhagic shock model: survival, blood loss, hemodynamics. It counts as in vivo, Yorkshire (Sus scrofa domestica) swine. As to conditions: FTY720 0.3 mg/kg 15 min after liver injury. As to the method:
Male and female 3-12 month Yorkshire (Sus scrofa domestica) swine weighing 25-35 kg were acquired from ABI farms (Donsboro, Pa.). Feed was withheld 12 hours before surgery. Prior to surgery, animals were sedated and anesthesia induced with intramuscular ketamine hydrochloride (12-20 mg/kg of weight) and xylazine (2.2 mg/kg of weight) as well as atropine sulfate (0.05 mg/kg of weight) to decrease tracheal secretions. Mask ventilation with Isoflurane (5.0%) was used to facilitate endotracheal intubation. Pigs were ventilated (Ohmeda 7800 series ventilator, Datex, Madison, Wis.) at 12-15 breaths/min and tidal volume 10 mL/kg. Anesthesia was maintained with Isoflurane (1.5-2.5%) in 21-25% O2.
Following adequate anesthesia the right external and internal jugular veins and carotid artery were isolated. A 9Fr dual-lumen, tunneled Hickman catheter was placed in the external jugular vein for drug infusion and blood collection during the survival period. […] Rectal temperature was monitored continuously. […]
All animal groups underwent a standardized liver injury and resuscitation protocol. […] Bleeding was spontaneous and removed continually via suction and quantified by weight. […]
After a total of 2 hours, the pre-hospital phase was completed and hospital arrival was simulated. […] The abdomen was reopened, residual blood suctioned, sponges collected, and blood loss quantified by weight. […]

The test system of assay [2] is central lymphocytes (CD3+). Put plainly: CD3 immunohistochemistry of mesenteric lymph node and spleen at necropsy (ACIS). In kind it is in vivo, Yorkshire (Sus scrofa domestica) swine. As to conditions: FTY720 0.3 mg/kg; both mesenteric lymph node and spleen at necropsy. As to the method: Immunohistochemical detection of CD3 was performed on sections of formalin fixed, paraffin embedded blocks of swine lymph node and spleen. Antigen retrieval was performed using Trilogy (Cell Marque, Rocklin, Calif.) for 30 minutes. Rat, anti-human CD3, monoclonal antibody (AbD Serotec, Raleigh, N.C.) was used at a dilution of 1:50 and incubated overnight at 4 C. Biotinylated goat anti-rat IgG specific polyclonal antibody (BD Biosciences, San Jose, Calif.) was applied as a secondary antibody at a 1:100 dilution for 30 minutes at room temperature. The chromogen applied was 3, 3′ Diaminobenzidine (DAKO, Carpenteria, Calif.) for 10 minutes. The sections were counterstained with Hematoxylin (DAKO, Carpenteria, Calif.). External negative controls were processed identically as CD3 but the primary antibody was substituted with normal rat serum. […] An Automated Cellular Imaging System (ACIS) was used to quantify the CD3 immunohistochemistry staining. By using the ACIS system, CD3 immunohistochemical staining could be specifically quantitated by determining how much brown (positive CD3 immunohistochemical reaction) was in the image compared to the amount of blue (hematoxylin nuclear counterstain).
Tissue slides were deparaffinized using xylene followed by graded baths of ethanol. […] An Automated Cellular Imaging System (ACIS) was used to quantify the CD3 immunohistochemistry staining. […]

Assay [3] concerns peripheral neutrophils. As to the kind of experiment: Peripheral neutrophil counts during hemorrhage and reperfusion. To be noted: FTY720 0.3 mg/kg; reperfusion period. It counts as in vivo, Yorkshire (Sus scrofa domestica) swine. As to the method: All functional laboratory assays were performed at 37° C., consistent with recorded normothermic animal temperatures (37.5±0.9° C.). Blood samples were collected at 0, 15, 30, 60, 90, and 120 minutes during the hemorrhage period and at 18, 24, 36, 48, and 72 hours during the survival period. Complete blood count with differentiation was performed with a cell counter (NDvia120 Hematology System, Siemens, Deerfield, Ill.).
Blood samples were collected at 0, 15, 30, 60, 90, and 120 minutes during the hemorrhage period and at 18, 24, 36, 48, and 72 hours during the survival period. Complete blood counts with differentiation were obtained using a cell counter (NDvia120 Hematology System, Siemens, Deerfield, Ill.).

In assay [4] the test system is lung tissue neutrophils (MPO+). Put plainly: MPO immunohistochemistry of lung tissue at necropsy. It counts as in vivo, Yorkshire (Sus scrofa domestica) swine. As to conditions: FTY720 0.3 mg/kg. On the procedure:
Immunohistochemical detection of MPO was performed on sections of formalin fixed, paraffin embedded blocks of swine lung. Antigen retrieval was performed using Proteinase K (DAKO, Carpenteria Calif.) for 30 minutes. Polyclonal rabbit, anti-human MPO (DAKO, Carpenteria Calif.) was used at a ready to use dilution and incubated at room temperature for 30 minutes. Envision, anti-rabbit (DAKO, Carpenteria Calif.) was applied as a secondary antibody for 30 minutes at room temperature. The chromogen applied was 3,3′ Diaminobenzidine (DAKO, Carpenteria, Calif.) for 10 minutes. The sections were counterstained with Hematoxylin (DAKO, Carpenteria, Calif.). External negative control was processed identically as with MPO but the primary antibody was substituted with normal rabbit serum. […] Cells with appropriate nuclear morphology and the presence of light to intensely reactive granules were counted; 5 random 40× fields were assessed.
Immunohistochemical detection of MPO was performed on sections of formalin fixed, paraffin embedded blocks of lung tissue. […] Polyclonal rabbit, anti-human MPO (DAKO, Carpenteria Calif.) was used at a ready to use dilution and incubated at room temperature for 30 minutes. […] Cells with appropriate nuclear morphology and the presence of light to intensely reactive granules were counted; 5 random 40× fields were assessed.

Assay [5] relates to renal transplant IRI. To be noted: rat, in vivo; cited from earlier work.
Assay [6] deals with IRI. As to conditions: various animal models; cited from earlier work.
Assay [7] has as its system immune-related genes in liver tissue. Put plainly: QRT-PCR gene transcript expression in liver tissue at necropsy. To be noted: FTY720 n=7 vs control n=5.

As to `CCCCCCCCc1ccc(CCC(N)(CO)CO)cc1` [FTY720], the “reperfusion period survival vs control” value in assay [1] was “statistically improved”. For the same compound, in assay [1] (72 hours), the “overall survival vs control” value is given as “improved compared to control although not statistically significant”. The “central lymphocyte sequestration (CD3 staining) vs control” value in assay [2] was “significant central lymphocyte sequestration”. Besides, the “peripheral neutrophil response vs control” value in assay [3] is given as “attenuated”. In addition, in assay [4], the “lung tissue neutrophils vs control” value was “significantly decreased”. In assay [5], the adhesion molecules expression entry is recorded as “no change”, the intragraft neutrophil infiltration entry is given as “reduced” and the renal function entry was “improved renal function”. The “effect on IRI” value in assay [6] is on record as “ameliorate IRI”. Moreover, in assay [7], the “BCL-2 transcript expression in liver vs control” value is “up-regulated”, the “FAS transcript expression in liver vs control” value is recorded as “down regulated”, the “HSP70 transcript expression in liver vs control” value is reported as “down-regulated” and the “INOS transcript expression in liver vs control” value is “down-regulated”. In assay [7], the “NFκB transcript expression in liver vs control” value was “down-regulated” and the “VCAM transcript expression in liver vs control” value is “down-regulated”.
